# Source: patent US20060111335A1, “Photoactivated anti-viral and anti-cancer agent” (priority 2002, published 2006)
# Tests used:
# φX-174 plasmid DNA = test: Photonicking of φX-174 plasmid DNA, gel electrophoresis; format: biochemical; details: for photonicking of φX-174 plasmid DNA: Example IX, dark and upon exposure to light
# Experimental: Photolysis with φX-174 Plasmid DNA. Metal complex solutions (with or without quenchers) were saturated with oxygen or argon prior to irradiation. The solutions were further degassed after being mixed with the plasmid. The final solution concentrations were: DPPZPHEN ([…]), φX-174 plasmid DNA (205 μM in base pairs), superoxide dismutase (25 μg/mL), 2-propanol (0.5 M), mannitol (6.25 mM), histidine (8 mM).
# Experiments were conducted as described in Example X to evaluate the amount photonicking that occurred in the dark and upon exposure to light for 37TMBP, 56TMBP, OCTBP, BISNMe2, TMOBP, TIOBP, TPBP, BISTAP and BISDPPZ.
# [1] = Reversed phase HPLC elution on C8 column as measure of hydrophobicity; format: physicochemical
# Experimental: Reversed phase high performance liquid chromatography (RP-HPLC) was carried out on C8 columns. Compounds were tested using 20%, 30% and 45% acetonitrile in 100 mM ammonium acetate at pH 5.4 for elution on a C8 column, with the intention of achieving an elution time of about 15 minutes. It was expected that the more hydrophobic a compound, the higher the acetonitrile content one would need for the eluent.
# cell membrane = test: Cell uptake / passage through the cell membrane
# Experimental: OCTBP uptake by KB cells. 11 mg of OCTBP was dissolved in 40 mL of PBS buffer. The solution was vortex stirred for 5 minutes to completely dissolve the solid. The solution was sterile filtered through a 0.2μ nylon syringe filter. The concentration of the solution was determined by measuring the UV absorption at 353 nm (ε353nm=1565 M^−1cm^−1).
# Once the cells were 75% confluent media was decanted from the flasks and 8 mL of drug solutions were added to three flasks and 8 mL of PBS buffer solution was added to the control flask. The flasks were incubated at 37° C. for 15, 30 and 45 minutes. Control flask was incubated for 45 minutes. When the flasks were removed, they were washed with 6×10 mL of PBS buffer solution. All the liquid was carefully decanted from the flasks. 1 mL of lysing buffer (1% triton X-100) was added to each of the four flasks. The walls of the flasks were rinsed using disposable pipettes. Once all the contents of the flasks were placed into a 1.5 mL disposable centrifuge tubes (each flask yielded ˜1.2 mL), the tubes were centrifuged at 6000 rpm and at 4° C. for 30 minutes on the Fisher Model 59V high-speed centrifuge. BCA Assay was done to establish the amount of cells in each flask.
# Rh content of each flask was determined using an inductively coupled plasma (ICP) instrument (AtomScan16, Thermo Elemental, Franklin, Mass.). From each centrifuge tube 1 mL was pipetted and 370 μL of concentrated HCl was added to form a 10% solution. The samples were heated in a hot water bath at 70° C. for 30 minutes. The samples were centrifuged again and the supernatant liquid was diluted to 8 mL by adding nano-pure water. The samples were analyzed for Rh content by ICP.
# cells = test: Phototoxicity, summary statement of Example XII; format: cell-based
# Calf thymus DNA = test: Dark association with DNA, UV-Visible titration (Example XI); format: binding; details: 50 mM pH 7 I=0.15 sodium phosphate buffer (physiological condition)
# Experimental: Preparation of DNA solution. Calf thymus DNA (Sigma) was dissolved in 50 mM, pH 7, I=0.15 sodium phosphate buffer (Physiological condition) and sonicated. The purity of the DNA was checked by monitoring the absorption spectrum and the ratio of the absorbance at 260 to 280 nm. The ratio were within the acceptable purity margin (1.8±0.1). The concentration of the Calf thymus DNA per phosphate was determined spectrophotometrically: ε253=6600 for calf thymus DNA^1. The concentration was 2.13 E-3 M.
# The resulting solution was diluted 4 times with phosphate buffer. […] 0, 50 μL, 150 μL, 200 μL, 300 μL, 350 μL and 500 μL of DNA solutions were added, mixed well with a small disposable needle, and spectra were recorded again. The concentration of the species, the apparent absorbance at 337 nm, and the apparent extinction coefficients at 337 nm were determined from the absorptions spectra and tabulated in Table 1.
# The apparent binding constant, Kapp was determined from the plot of [DNA]/Δεapp versus [DNA], where Δεapp=εf−εapp and Δε=εf−εb^2, where εb and εf correspond to the extinction coefficient of the DNA-bound form of the OCTBP derivatives and the extinction coefficient of the DNA-unbound OCTBP derivatives, respectively. […] Cb=(εfCtotal−Aobserved)/Δε The concentration of the DNA-unbound OCTBP derivatives (Cf) can be determined by Cf=Ctotal−Cb […]
# [2] = Photodestruction (photoaquation) with visible light >500 nm, HPLC analysis; format: physicochemical; details: 0.1 mM aqueous, 8 hours under argon
# Experimental: Aqueous solutions (3 mL, 0.1 mM) of the Rh complexes were irradiated for 8 hours under argon using a 450 W Hanovia medium pressure mercury lamp filtered through a uranium yellow glass (cut-off<330 nm) and a 1.5 cm 0.5% (w/v) aqueous solution of K2Cr2O7 (0% transmittance≦500 nm). Photodestruction of the metal complexes was followed by HPLC analysis.
# [3] = Dark thermal aquation and thermal base hydrolysis; format: physicochemical; details: 80° C. with 10% NaOH
# Excerpt: A dissociation/addition mechanism is generally accepted as responsible for the substitution chemistry associated with a hexacoordinated Rh(III) ligand field triplet (Weiland et al., Inorg. Chem., 25:4893 (1986)). The dissociation step is due to the promotion of an electron from the t2g orbital to the eg orbital, which leads to significant weakening of the metal ligand bonds. (Hipps et al., Inorg. Chem., 13:1544 (1974)).
# KB cells = details: delivered to cells by liposome; cited from earlier work
# [4] = tested on: KB (human nasopharingeal carcinoma) cells; details: cited from earlier work
# [5] = tested on: naked infectious DNA from phages S13 and G4; details: cited from earlier work
# [6] = tested on: HeLa (human cervical carcinoma) cells; details: cited from earlier work
# bacteriophage φ6 = details: cited from earlier work
# DNA = tested on: DNA; parameters: association with DNA in the dark: dose or concentration left out as unconfirmed; details: cited from earlier work
# Sindbis virus = details: cited from earlier work
# CT DNA = test: Dark interaction of DPPZPHEN with CT DNA, UV-Vis absorption titration at 380 nm; format: binding, calf
# Experimental: General. The quantity of DNA was determined by the Burton assay (Burton, Biochem. J., 62:315-322 (1956)), and its rhodium content was quantitated using flame atomic absorption spectroscopy (AA). The equilibrium constant for interaction between DPPZPHEN and CT-DNA in the dark was calculated from UV-Vis absorption titration measurements at 380 nm (Wolfe et al., Biochem., 26:6392-6396 (1987); Schemel et al., Biopolymers, 10:465-480 (1971)). Cell viability was determined using the MTT assay (Denizot et al., J. Immunol. Methods, 89:271-277 (1986)). SINV was purified on sucrose gradients as previously described (Owen et al., J. Virol., 70:2757-2763 (1996)). The titer was generally 7-8 log10 pfu/mL at the beginning of each experiment.
# Interaction of DPPZPHEN with DNA. […] An intrinsic binding constant of […] 3.4×10^5 M^−1 was calculated using the molar extinction coefficient at the λmax (380 nm) at each titration point.
# nucleic acid = details: irradiated with light; cited from earlier work
# [7] = 45% acetonitrile in 100 mM ammonium acetate pH 5.4
structure (smiles),measurement,setting,value
"CC(C)OC1=c2ccc3c4c2[N](C=C1)[Rh+]1([Cl])([Cl])([N]4C=CC=3OC(C)C)[N]2C=CC(OC(C)C)=c3ccc4c(c32)[N]1C=CC=4OC(C)C.[Cl-] [TIOBP, cis-dichlorobis(3,7-diisopropoxy-1,10 phenanthroline) rhodium(III) chloride]",photonicking of φX-174 plasmid DNA,φX-174 plasmid DNA,"Only TPBP, BISTAP, BISDPPZ and BISDPPHEN complexes were found to photonick"
same,elution time,[1]; [7],about 15 minutes
"[Cl-].[Cl][Rh+]12([Cl])([N]3C=CC=c4c3c3c(c5nc6ccccc6nc45)=CC=C[N]31)[N]1C=CC=c3c1c1c(c4nc5ccccc5nc34)=CC=C[N]12 [BISDPPZ, cis-dichlorobis{dipyrido(3,2-a: 2′,3′-c)phenazine)rhodium (III) chloride]",photonicking of φX-174 plasmid DNA,φX-174 plasmid DNA,found to photonick
same,elution time,[1]; [7],around 30 minutes
"[Cl-].[Cl][Rh+]12([Cl])([N]3C=CC(c4ccccc4)=c4ccc5c(c43)[N]1C=CC=5c1ccccc1)[N]1C=CC(c3ccccc3)=c3ccc4c(c31)[N]2C=CC=4c1ccccc1 [TPBP, cis-dichlorobis(4,7-diphenyl-1,10-phenanthroline) rhodium(III) chloride]",photonicking of φX-174 plasmid DNA,φX-174 plasmid DNA,found to photonick
same,elution time,[1]; [7],around 30 minutes
"CN(C)C1=c2ccc3c4c2[N](C=C1)[Rh+]1([Cl])([Cl])([N]4C=CC=3N(C)C)[N]2C=CC(N(C)C)=c3ccc4c(c32)[N]1C=CC=4N(C)C.[Cl-] [BISNMe2, cis-dichlorobis(N,N-dimethylamino)-1,10-phenanthroline} rhodium(III) chloride]",photonicking of φX-174 plasmid DNA,φX-174 plasmid DNA,"Only TPBP, BISTAP, BISDPPZ and BISDPPHEN complexes were found to photonick"
same,elution time,[1]; [7],about 15 minutes
same,ability to pass through the cell membrane,cell membrane,able to pass through the cell membrane
same,phototoxicity,cells,are phototoxic
same,apparent (intrinsic) binding constant Kapp,Calf thymus DNA,2.0 E4 M
CC1=c2ccc3c4c2[N](C=C1)[Rh+]1([Cl])([Cl])([N]4C=CC=3C)[N]2C=CC(C)=c3ccc4c(c32)[N]1C=CC=4C.[Cl-] [37TMBP],photonicking of φX-174 plasmid DNA,φX-174 plasmid DNA,"Only TPBP, BISTAP, BISDPPZ and BISDPPHEN complexes were found to photonick"
same,photodestruction,[2],6.1 % loss
same,"thermal hydrolysis, rank order",[3],OCTBP≅37TMBP>BISPHEN
"COC1=c2ccc3c4c2[N](C=C1)[Rh+]1([Cl])([Cl])([N]4C=CC=3OC)[N]2C=CC(OC)=c3ccc4c(c32)[N]1C=CC=4OC.[Cl-] [TMOBP, cis-dichlorobis(4,7-dimethoxy-1,10-phenanthroline) rhodium(III) chloride]",photonicking of φX-174 plasmid DNA,φX-174 plasmid DNA,"Only TPBP, BISTAP, BISDPPZ and BISDPPHEN complexes were found to photonick"
same,elution time,[1]; [7],about 15 minutes
[Cl-].[Cl][Rh+]12([Cl])([N]3C=CC=c4c3c3c(c5nccnc45)=CC=C[N]31)[N]1C=CC=c3c1c1c(c4nccnc34)=CC=C[N]12,elution time,[1]; [7],8 to 10 min
"[Cl-].[Cl-].[Cl-].[Rh+3].c1cnc2c(c1)ccc1cccnc12.c1cnc2c(c1)ccc1cccnc12 [BISPHEN, cis-dichlorobis(1,10-phenanathroline) rhodium(III) chloride]",frank nicks / nicking of φX-174 supercoiled plasmid DNA upon irradiation,"φX-174 plasmid DNA; 311 nm irradiation, Example VIII",does not generate such frank nicks
same,phototoxicity against KB cells,KB cells,marginal levels of phototoxicity
same,elution time,[1]; 20% acetonitrile in 100 mM ammonium acetate pH 5.4,about 15 minutes
same,photodestruction,[2],virtually unaffected
same,uptake by cells,[4],not taken up
same,phototoxicity to single stranded and double stranded naked infectious DNA,[5],phototoxic
same,ability to pass through the cell membrane,cell membrane,Neither of these compounds is able to pass through a cell membrane
same,"thermal hydrolysis, rank order",[3],OCTBP≅37TMBP>BISPHEN
same,uptake by cells,[6],not taken up
same,activity against bacteriophage φ6,bacteriophage φ6,did not exhibit any activity
same,dark association with DNA,DNA; dark,minimal dark association
same,association with DNA in the dark,DNA; very low ionic strength,only a minimal association
same,phototoxicity / virucidal activity against Sindbis virus,Sindbis virus,minimal phototoxicity
same,interaction with CT DNA in the dark,CT DNA,negligible interaction
same,covalent binding to nucleic acid upon irradiation,nucleic acid,covalently binds to nucleic acid
"Cc1c(C)c2c3c4c1=CC=C[N]4[Rh+]1([Cl])([Cl])([N]3C=CC=2)[N]2C=CC=c3c(C)c(C)c4c(c32)[N]1C=CC=4.[Cl-] [56TMBP, cis-dichlorobis(5,6-dimethyl-1,10-phenanthroline) rhodium(III) chloride]",photonicking of φX-174 plasmid DNA,φX-174 plasmid DNA,"Only TPBP, BISTAP, BISDPPZ and BISDPPHEN complexes were found to photonick"
